Experimental data: patent US20230027066A1 (Urovant Sciences GmbH, priority 2019, published 2023)

System: men and women with overactive bladder
Assay: Phase 3 study of vibegron 75 mg vs placebo and tolterodine ER 4 mg, 12 weeks, efficacy (voiding and urine volume diary)
Type: in vivo, human
Details: for Daily Urgency Episodes: Vibegron - Placebo LS Means Difference: 75 mg; for Daily Urgency Episodes: Reduction from Baseline at Week 12, LS Mean: vibegron 75 mg, tolterodine ER 4 mg; for Patients with 100% Reduction in UUI from Baseline to Week 12, Unadjusted n (%) / Patients with at Least 75% Reduction in UUI from Baseline to Week 12, Unadjusted n (%) / Patients with 100% Reduction in UUI from Baseline to Week 12, Adjusted n (%) / Patients with at Least 75% Reduction in UUI from Baseline to Week 12, Adjusted n (%): FAS-I; for Patients with 100% Reduction in UUI from Baseline to Week 12, Adjusted n (%) / Patients with at Least 75% Reduction in UUI from Baseline to Week 12, Adjusted n (%): MI for missing values; for 75% UUI responders, Active-Placebo CMH Difference / 100% UUI responders, Active-Placebo CMH Difference: stratified by sex; for Urgency, Change from Baseline LS Mean / Urgency, LS Mean Difference active - Placebo: baseline to Week 12
Protocol: Enrollment of patients included individuals with OAB Wet (those with UUI, the involuntary loss of urine accompanied by urgency) and OAB Dry (those without UUI). A total of 1,518 patients were randomized across 215 study sites into one of three groups for a 12-week treatment period.
The study consisted of a Screening Period (1 to 5 weeks), a single-blind Run-in Period (2 weeks), a randomized double-blind Treatment Period (12 weeks), and a Follow-up Period (4 weeks).
Tolterodine ER 4 mg was the active control. […] Between the Baseline and Week 12 Visits, patients had study assessments at Week 4 and Week 8.
The Patient Voiding Diary was used by participants (via the eDiary or paper Diary) to record the frequency of daily OAB symptoms including all micturitions, urgency, incontinence, and main reason for incontinence by selecting the respective box for each symptom occurring during the course of a given day and night.
Urine volume data were collected separately by patients using the Urine Volume component of the eDiary, or the paper Urine Volume Chart. The Urine Volume Chart is a tool used in clinical practice and clinical investigation to assess voiding functions over a 24-hour period and is regarded as a useful instrument in the investigation of patients with voiding symptoms. Urine volume may be collected during any one (1) of the 7 Diary Days prior to the visit, and it should be recorded for ˜24 hours starting from the time the patient gets up for the day and continues until the time the patient gets up for the day on the next day.
For the purpose of this study, the number of micturitions was defined as the number of times a patient has voided in the toilet as indicated on the Patient Voiding Diary. Average daily micturitions were calculated using the daily entries in the Patient Voiding Diary, which was completed over the 7 days prior to each study visit. Average daily number of micturitions were calculated as the total number of micturitions that occurred on a Complete Diary Day divided by the number of Complete Diary Days in the Patient Voiding Diary. A complete diary day required confirmation by the patient in the Patient Voiding Diary that all voids and leakages had been recorded for the diary day. Baseline was defined as the average number of micturitions occurring during the last evaluable diary prior to the Baseline Visit.
The number of UUI episodes was defined as the number of times a patient had checked “urge” as the reason for accidental urine leakage. Average daily UUI episodes at each study visit were calculated in the same manner as described above for the micturition endpoint. The UUI endpoint were analyzed using only OAB Wet patients.
For the analysis of the co-primary endpoints (change from baseline in average number of daily micturitions at Week 12 and change from baseline in average number of daily urge urinary incontinence episodes at Week 12, and placebo adjustment of each), a mixed model for repeated measure (MMRM) with restricted maximum likelihood estimation was used. This model corrects for dropout and accounts for the fact that measurements taken on the same patient over time tend to be correlated by using all available information on patients within the same covariate set to derive an estimate of the treatment effect for a dropout-free population. The analysis model for each efficacy endpoint includes terms for treatment, visit, OAB Type (Wet vs Dry), Sex (Female vs Male), Region (US vs Rest of World), baseline score, and interaction of visit by treatment.
Primary inferences were drawn from treatment differences for the changes from baseline derived from the MMRM models at Week 12. As part of secondary objectives, the treatment differences for each post baseline visit were also derived using the same MMRM model. […]

[1] = 50% Total Incontinence Responders, Week 2
[2] = 50% Total Incontinence Responders, Week 4
[3] = 50% Total Incontinence Responders, Week 8
[4] = 50% Total Incontinence Responders, Week 12
[5] = Dry population, baseline to Week 2

## O=C(Nc1ccc(C[C@@H]2CC[C@H]([C@H](O)c3ccccc3)N2)cc1)[C@@H]1CCc2nccc(=O)n21 [Vibegron, (6S)-N-[4-[[(2S,5R)−5-[(R)-hydroxy(phenyl)methyl]pyrrolidin−2-yl]methyl]phenyl]−4-oxo−7,8-dihydro−6H-pyrrolo[1,2-a]pyrimidine−6-carboxamide]
[1]
  Average Volume Voided per Micturition, Mean (SD): 173.8 (76.89)
  Average daily number of urgency episodes, Mean (SD): 5.62 (3.792)
  Change from Baseline in Average Daily Number of Urgency Episodes, LS Mean (SE): −2.1 (0.15)
  Change from Baseline in Average Volume Voided per Micturition, LS Mean: 16.1 (3.79)
  Change from baseline in Percent Dry Diary Days, LS Mean: 29.0 (2.11) Percent
  Percent Dry Diary Days, Mean (SD): 34.64 (36.322) Percent
[2]
  Average Volume Voided per Micturition, Mean (SD): 176.5 (81.31)
  Average daily number of urgency episodes, Mean (SD): 5.01 (3.889)
  Change from Baseline in Average Daily Number of Urgency Episodes, LS Mean (SE): −2.6 (0.16)
  Change from Baseline in Average Volume Voided per Micturition, LS Mean: 18.0 (3.99)
  Change from baseline in Percent Dry Diary Days, LS Mean: 37.8 (2.41) Percent
  Percent Dry Diary Days, Mean (SD): 43.31 (41.468) Percent
[3]
  Average Volume Voided per Micturition, Mean (SD): 182.0 (84.53)
  Average daily number of urgency episodes, Mean (SD): 4.25 (3.833)
  Change from Baseline in Average Daily Number of Urgency Episodes, LS Mean (SE): −3.4 (0.19)
  Change from Baseline in Average Volume Voided per Micturition, LS Mean: 24.2 (4.12)
  Change from baseline in Percent Dry Diary Days, LS Mean: 47.4 (2.45) Percent
  Percent Dry Diary Days, Mean (SD): 53.01 (39.898) Percent
[4]
  Average Volume Voided per Micturition, Mean (SD): (186.2 (84.24)
  Average daily number of urgency episodes, Mean (SD): 3.67 (3.481)
  Change from Baseline in Average Daily Number of Urgency Episodes, LS Mean (SE): −4.0 (0.20)
  Change from Baseline in Average Volume Voided per Micturition, LS Mean: 27.6 (4.24)
  Change from baseline in Percent Dry Diary Days, LS Mean: 55.5 (2.37) Percent
  Percent Dry Diary Days, Mean (SD): 61.0 (37.857) Percent
75% UUI Responders, Week 2
  Average Volume Voided per Micturition, Mean (SD): 174.3 (77.29)
  Average daily number of urgency episodes, Mean (SD): 5.40 (3.762)
  Change from Baseline in Average Volume Voided per Micturition, LS Mean: 17.7 (4.28)
  Change from baseline in average daily number of urgency episodes, LS Mean: −2.2 (0.17)
75% UUI Responders, Week 4
  Average Volume Voided per Micturition, Mean (SD): 178.1 (82.51)
  Average daily number of urgency episodes, Mean (SD): 4.72 (3.838)
  Change from Baseline in Average Volume Voided per Micturition, LS Mean: 20.7 (4.52)
  Change from baseline in average daily number of urgency episodes, LS Mean: −2.7 (0.19)
75% UUI Responders, Week 8
  Average Volume Voided per Micturition, Mean (SD): 184.2 (87.70)
  Average daily number of urgency episodes, Mean (SD): 3.95 (3.742)
  Change from Baseline in Average Volume Voided per Micturition, LS Mean: 27.2 (4.67)
  Change from baseline in average daily number of urgency episodes, LS Mean: −3.5 (0.21)
75% UUI Responders, Week 12
  Average Volume Voided per Micturition, Mean (SD): 185.0 (87.89)
  Average daily number of urgency episodes, Mean (SD): 3.31 (3.433)
  Change from Baseline in Average Volume Voided per Micturition, LS Mean: 26.9 (4.87)
  Change from baseline in average daily number of urgency episodes, LS Mean: −4.2 (0.23)
Age ≥65 years, Week 12
  Daily Urgency Episodes: Vibegron - Placebo LS Means Difference: −1.0
Age ≥65 years
  Daily Urgency Episodes: Reduction from Baseline at Week 12, LS Mean: −2.7
Age ≥75 years, Week 12
  Daily Urgency Episodes: Vibegron - Placebo LS Means Difference: −1.7
Age ≥75 years
  Daily Urgency Episodes: Reduction from Baseline at Week 12, LS Mean: −2.6
All patients, Week 12
  Daily Urgency Episodes: Vibegron - Placebo LS Means Difference: −0.7
All patients
  Daily Urgency Episodes: Reduction from Baseline at Week 12, LS Mean: −2.7
Baseline Number of UUI <3
  Patients with 100% Reduction in UUI from Baseline to Week 12, Unadjusted n (%): 79 (35.4) n (%)
  Patients with at Least 75% Reduction in UUI from Baseline to Week 12, Unadjusted n (%): 112 (50.2) n (%)
  Patients with 100% Reduction in UUI from Baseline to Week 12, Adjusted n (%): 68 (30.4) n (%)
  Patients with at Least 75% Reduction in UUI from Baseline to Week 12, Adjusted n (%): 101 (45.5) n (%)
  75% UUI responders, Active-Placebo CMH Difference: 7.1
  100% UUI responders, Active-Placebo CMH Difference: 2.8
Baseline Number of UUI ≥3
  Patients with 100% Reduction in UUI from Baseline to Week 12, Unadjusted n (%): 37 (20.6) n (%)
  Patients with at Least 75% Reduction in UUI from Baseline to Week 12, Unadjusted n (%): 99 (55.0) n (%)
  Patients with 100% Reduction in UUI from Baseline to Week 12, Adjusted n (%): 34 (19.1) n (%)
  Patients with at Least 75% Reduction in UUI from Baseline to Week 12, Adjusted n (%): 98 (54.4) n (%)
  75% UUI responders, Active-Placebo CMH Difference: 29.4
  100% UUI responders, Active-Placebo CMH Difference: 12.3
Dry population, Age <65
  Urgency, Change from Baseline LS Mean: −2.9 (64)
  Urgency, LS Mean Difference active - Placebo: −1.4
Dry population, Age ≥65
  Urgency, Change from Baseline LS Mean: −2.2 (45)
  Urgency, LS Mean Difference active - Placebo: −0.5
Dry population, Week 2
  Average daily number of urgency episodes, Mean (SD): 6.98 (4.732)
  Change from baseline in average daily number of urgency episodes, LS Mean: −1.5 (0.24)
  Urgency episodes, Active - Placebo LS Mean Difference: −0.8 (0.35)
Dry population, Week 4
  Average daily number of urgency episodes, Mean (SD): 6.80 (4.667)
  Change from baseline in average daily number of urgency episodes, LS Mean: −1.8 (0.26)
  Urgency episodes, Active - Placebo LS Mean Difference: −0.9 (0.37)
Dry population, Week 8
  Average daily number of urgency episodes, Mean (SD): 6.39 (4.627)
  Change from baseline in average daily number of urgency episodes, LS Mean: −2.2 (0.30)
  Urgency episodes, Active - Placebo LS Mean Difference: −1.0 (0.44)
Dry population, Week 12
  Average daily number of urgency episodes, Mean (SD): 6.17 (4.958)
  Change from baseline in average daily number of urgency episodes, LS Mean: −2.6 (0.33)
  Urgency episodes, Active - Placebo LS Mean Difference: −1.0 (0.47)
[5]
  Patients with at Least 50% Reduction in Urgency Episodes, Adjusted (%): 18.1%
  Patients with at Least 50% Reduction in Urgency Episodes, Adjusted n: 22
  Patients with at Least 50% Reduction in Urgency Episodes, Unadjusted (%): 18.7%
  Patients with at Least 50% Reduction in Urgency Episodes, Unadjusted n: 23
  Urgency 50% responders, Active - Placebo CMH Difference: 4.7
Dry population, baseline to Week 4
  Patients with at Least 50% Reduction in Urgency Episodes, Adjusted (%): 22.4%
